Read-outs that look alike come from different tables or passages of the source.
Key:
[1] = test system: KG1 (human acute myeloid leukaemia); test: MTT cytotoxicity assay, KG1; format: cell-based; settings: for IC50: Homo sapiens, MTT, 72 h exposure, three independent experiments, read-out: Cytotoxic activity IC50 (95% CI) KG1; for Selectivity index KG1: ratio of cytotoxicity L929 / KG1
Protocol: (§1) In this study, the IC50 was obtained in micromolar concentrations, using the colourimetric MTT (3-(4,5-dimethylthiazol-2-yl)-2,5-diphenyl tetrazolium bromide)) assay, and doxorubicin was used as the positive control. […] The activity against the non-tumoural murine fibroblast cell line L929 was also evaluated in order to study the cytotoxicity behaviour of each compound and to understand their respective relative selectivity. The selectivity index was obtained using the ratio of measured cytotoxicity between the L929 cell line and each of the cancer cell lines, and the results are presented in Table 2.
(§2) The in vitro cytotoxicity activity of the compounds was evaluated by the colorimetric MTT (3-(4,5-dimethylthiazol-2-yl)-2,5-diphenyl tetrazolium bromide)) assay using the following tumor cell lines: HCT-116 (colon carcinoma), PC3 (prostate), SNB-19 (glioblastoma), K-562 (myelogenous leukaemia), HL-60 (human promyelocytic leukaemia), B16 (murine melanoma), A549 (human lung carcinoma), KG1 (human acute myeloid leukaemia), and RAJI (human Burkitt’s lymphoma), which were provided by the National Cancer Institute (Bethesda, MD, USA). The L929 cell line (mouse fibroblast L cells NCTC clone 929) employed in this study as a control cell line was obtained from the American Type Culture Collection (Manassas, VA, USA). The cell lines (Table S4) were maintained in flasks containing RPMI 1640 or DMEM medium supplemented with 10% bovive fetal sérum, 100 U/mL penicillin, and 100 μg/mL streptomycin at 37 °C and in 5% CO2 atmosphere. The compounds tested were dissolved in DMSO. Doxorubicin served as the positive control. Cell treatments were performed with three replicates and the cells were mycoplasma free. After 72 h incubation, 100 μL of MTT solution (0.5 mg/mL) was added to each well, and the cells were incubated for 3 h. The supernatant was removed and 100 μL of DMSO was added and the absorbance at 595 nm was measured using Victor Nivo Multimode plate reader (PerkinElmer, Waltham, MA, USA). The absorbances obtained were used to calculate the IC50 values by nonlinear regression employing appropriate statistical software.
(§3) The in vitro cytotoxicity activity of compounds was evaluated by the colorimetric MTT (3-(4,5-dimethylthiazol-2-yl)-2,5-diphenyl tetrazolium bromide)) assay using tumor cell lines: HCT-116 (colon carcinoma), PC3 (prostate), SNB-19 (glioblastoma), K-562 (myelogenous leukaemia), HL-60 (human promyelocytic leukaemia), B16 (murine melanoma), A549 (human lung carcinoma), KG1 (human acute myeloid leukaemia) and RAJI (human Burkitt's lymphoma), which were provided by the National Cancer Institute (Bethesda, MD, USA). The L929 cell line (mouse fibroblast L cells NCTC clone 929) employed in this study as a control cell line was obtained from the American Type Culture […]
(§4) Collection (Manassas, VA, USA). Cell lines (Table 01) were maintained in flasks containing RPMI 1640 or DMEM medium supplemented with 10% bovive fetal sérum, 100 U/mL penicillin, and 100 μg/mL streptomycin at 37 °C and 5% CO2 atmosphere.
(§5) Compounds tested were dissolved in DMSO. Doxorubicin served as positive control. Cell treatments were performed with three replicates and cells were mycoplasma-free. After 72 h incubation, 100 μL of MTT solution (0.5 mg/mL) was added to each well, and cells were incubated for 3 h. The supernatant was removed and 100 μL of DMSO was added and the absorbance at 595 nm was measured using Victor Nivo Multimode plate reader

[2] = test system: HCT-116 (human colorectal carcinoma); test: MTT cytotoxicity assay, HCT-116; format: cell-based; settings: for IC50: Homo sapiens, HCT-116, 72 h, MTT, 72 h exposure, three independent experiments, read-out: Cytotoxic activity IC50 (95% CI) HCT-116; for Selectivity index HCT-116: ratio of cytotoxicity L929 / HCT-116
Protocol: as §1, §2, §3, §4, §5

[3] = test system: K-562 (human chronic myeloid leukaemia); test: MTT cytotoxicity assay, K-562; format: cell-based; settings: for IC50: Homo sapiens, K562, MTT, 72 h exposure, three independent experiments, read-out: Cytotoxic activity IC50 (95% CI) K-562; for Selectivity index K-562: ratio of cytotoxicity L929 / K-562
Protocol: as §1, §2, §3, §4, §5

[4] = test system: RAJI (human Burkitt’s lymphoma); test: MTT cytotoxicity assay, RAJI; format: cell-based; settings: for IC50: Homo sapiens, Raji, 72 h, MTT, 72 h exposure, three independent experiments, read-out: Cytotoxic activity IC50 (95% CI) RAJI; for Selectivity index RAJI: ratio of cytotoxicity L929 / RAJI
Protocol: as §1, §2, §3, §4, §5

[5] = test system: A549 (human lung carcinoma); test: MTT cytotoxicity assay, A549; format: cell-based; settings: for IC50: Homo sapiens, A549, MTT, 72 h exposure, three independent experiments, read-out: Cytotoxic activity IC50 (95% CI) A549; for Selectivity index A549: ratio of cytotoxicity L929 / A549
Protocol: as §1, §2, §3, §4, §5

[6] = MTT cytotoxicity assay, L929 control line; format: cell-based, mouse; settings: mouse, L929 fibroblast cells (non-tumoral control line), 72 h exposure, read-out: Cytotoxic activity IC50 (95% CI) L929
Protocol: as §1, §2, §3, §4, §5

[7] = test system: HL60 (human pro-myelocytic leukaemia); test: MTT cytotoxicity assay, HL60; format: cell-based; settings: for IC50: Homo sapiens, HL-60, 72 h, MTT, 72 h exposure, three independent experiments, read-out: Cytotoxic activity IC50 (95% CI) HL60; for Selectivity index HL60: ratio of cytotoxicity L929 / HL60
Protocol: as §1, §2, §3, §4, §5

[8] = test system: SNB-19 (human astrocytoma); test: MTT cytotoxicity assay, SNB-19; format: cell-based; settings: for IC50: Homo sapiens, SNB-19, MTT, 72 h exposure, three independent experiments, read-out: Cytotoxic activity IC50 (95% CI) SNB-19; for Selectivity index SNB-19: ratio of cytotoxicity L929 / SNB-19
Protocol: as §1, §2, §3, §4, §5

B16 (murine melanoma) = test: MTT cytotoxicity assay, B16; format: cell-based; settings: for IC50: Mus musculus, MTT, 72 h exposure, three independent experiments, read-out: Cytotoxic activity IC50 (95% CI) B16; for Selectivity index B16: ratio of cytotoxicity L929 / B16
Protocol: as §1, §2, §3, §4, §5

[9] = test system: PC3 (human prostate adenocarcinoma); test: MTT cytotoxicity assay, PC3; format: cell-based; settings: for IC50: Homo sapiens; for Selectivity index PC3: ratio of cytotoxicity L929 / PC3
Protocol: as §1, §2, §3, §4, §5

[10] = MTT, 72 h exposure, three independent experiments, read-out: Cytotoxic activity IC50 (95% CI) PC3

SMILES | IC50 [1] [µM] | IC50 [2] [µM] | IC50 [3] [µM] | IC50 [4] [µM] | IC50 [5] [µM] | IC50 at 72 h [6] [µM] | IC50 [7] [µM] | Selectivity index HL60 [7] | IC50 [8] [µM] | IC50 (B16 (murine melanoma)) [µM] | Selectivity index B16 (B16 (murine melanoma)) | IC50 [9, 10] [µM] | Selectivity index KG1 [1] | Selectivity index HCT-116 [2] | Selectivity index K-562 [3] | Selectivity index RAJI [4] | Selectivity index A549 [5] | Selectivity index SNB-19 [8] | Selectivity index PC3 [9] | IC50 ([9]; 72 h, read-out: Bioactivity class according to IC50, PC3) [µM]
C#CCNC1=CC(=O)c2c(I)cccc2C1=O [Compound 18a, 5-iodo-2-(prop-2-yn-1-ylamino)naphthalene-1,4-dione] | > 100 | > 100 | > 100 | > 100 | > 100 | > 100 | 38.3 | 2.6 | > 100 | 48.5 | 2.1 | > 100 |  |  |  |  |  |  |  | 
C#CCNC1=CC(=O)c2cc3ccccc3cc2C1=O [Compound 18e, 2-(prop-2-yn-1-ylamino)anthracene-1,4-dione] | > 100 | > 100 | > 100 | > 100 | > 100 | > 100 | > 100 |  | > 100 | > 100 |  | > 100 |  |  |  |  |  |  |  | 
CC1(C)OC2=C(C(=O)C(=O)c3ccccc32)C1n1cc(CNC2=CC(=O)c3cc4ccccc4cc3C2=O)nn1 (stereo not shown) [Compound 19e, 3-(4-(((1,4-dioxo-1,4-dihydroanthracen-2-yl)amino)methyl)-1H-1,2,3-triazol-1-yl)-2,2-dimethyl-2,3-dihydronaphtho[1,2-b]furan-4,5-dione] | 4.77 | 2.63 | 8.13 | 1.69 | 6.14 | 4.83 | 0.86 | 5.6 | 3.52 | 3.97 | 1.2 | 3.48 | 1.0 | 1.8 | 0.6 | 2.9 | 0.8 | 1.4 | 1.4 | 
COc1cccc2c1C(=O)C(NCc1cn(CC3CC4=C(OC3(C)C)c3ccccc3C(=O)C4=O)nn1)=CC2=O (stereo not shown) [Compound 21c, 3-((4-(((8-methoxy-1,4-dioxo-1,4-dihydronaphthalen-2-yl)amino)methyl)-1H-1,2,3-triazol-1-yl)methyl)-2,2-dimethyl-3,4-dihydro-2H-benzo[h]chromene-5,6-dione] | 1.32 | 4.85 | 5.3 | 1.22 | 4.78 | 5.6 | 2.28 | 2.5 | 4.92 | 4.57 | 1.2 | 5.09 | 4.2 | 1.2 | 1.1 | 4.6 | 1.2 | 1.1 | 1.1 | 
[N-]=[N+]=NCC1CC2=C(O1)c1ccccc1C(=O)C2=O (stereo not shown) [Compound 7, 2-(azidomethyl)-2,3-dihydronaphtho[1,2-b]furan-4,5-dione] | 3.67 | 1.8 | 0.98 | 0.53 | 2.63 | 3.46 | 0.59 | 5.9 | 1.43 | 1.99 | 1.7 | 2.25 | 0.9 | 1.9 | 3.5 | 6.5 | 1.3 | 2.4 | 1.5 | 2 to 10
CC1(C)OC2=C(CC1Cn1cc(CNC3=CC(=O)c4c(I)cccc4C3=O)nn1)C(=O)C(=O)c1ccccc12 (stereo not shown) [Compound 21a, 3-((4-(((5-iodo-1,4-dioxo-1,4-dihydronaphthalen-2-yl)amino)methyl)-1H-1,2,3-triazol-1-yl)methyl)-2,2-dimethyl-3,4-dihydro-2H-benzo[h]chromene-5,6-dione] | 4.2 | 2.69 | 5.03 | 5.71 | 2.76 | 1.86 | 1.02 | 1.8 | 2.93 | 0.96 | 1.9 | 6.19 | 0.4 | 0.7 | 0.4 | 0.3 | 0.7 | 0.6 | 0.3 | 
C#CCNC1=CC(=O)c2cccc(OCc3ccccc3)c2C1=O [Compound 18d, 8-benzyloxy-2-(prop-2-yn-1-ylamino)naphthalene-1,4-dione] | > 100 | > 100 | > 100 | > 100 | > 100 | > 100 | 32 | 3.1 | > 100 | 35.5 | 2.8 | > 100 |  |  |  |  |  |  |  | 
CC1(C)OC2=C(C(=O)C(=O)c3ccccc32)C1n1cc(CNC2=CC(=O)c3c(O)cccc3C2=O)nn1 (stereo not shown) [Compound 19b, 3-(4-(((5-hydroxy-1,4-dioxo-1,4-dihydronaphthalen-2-yl)amino)methyl)-1H-1,2,3-triazol-1-yl)-2,2-dimethyl-2,3-dihydronaphtho[1,2-b]furan-4,5-dione] | 5.24 | 1.7 | 3.16 | 2.55 | 3.16 | 5.97 | 0.99 | 6.0 | 3.35 | 3.55 | 1.7 | 3.16 | 1.1 | 3.5 | 1.9 | 2.3 | 1.9 | 1.8 | 1.9 | 

Source: PMC10005332, “It Takes Two to Tango, Part II: Synthesis of A-Ring Functionalised Quinones Containing Two Redox-Active Centres with Antitumour Activities” (Molecules, 2023)
